# pIC50: −log10 of the molar value.
# Key:
# [1] = aqueous solutions at 37° C. or 0° C. at neutral pH; cited from earlier work
# [2] = in vivo; cited from earlier work
# PIK3CA = PIK3CA (Homo sapiens, UniProt P42336); test: in vitro kinase assay, PIK3CA; assay type: biochemical
# From the text: (§1) Table 1 illustrates the potency of 17-hydroxy PX-866 metabolite in in vitro kinase assays: […]
# PIK3CB = PIK3CB (Homo sapiens, UniProt P42338); test: in vitro kinase assay, PIK3CB; assay type: biochemical
# From the text: as §1
# PIK3CD = PIK3CD (Homo sapiens, UniProt O00329); test: in vitro kinase assay, PIK3CD; assay type: biochemical
# PIK3CD, sequence (O00329 whole entry): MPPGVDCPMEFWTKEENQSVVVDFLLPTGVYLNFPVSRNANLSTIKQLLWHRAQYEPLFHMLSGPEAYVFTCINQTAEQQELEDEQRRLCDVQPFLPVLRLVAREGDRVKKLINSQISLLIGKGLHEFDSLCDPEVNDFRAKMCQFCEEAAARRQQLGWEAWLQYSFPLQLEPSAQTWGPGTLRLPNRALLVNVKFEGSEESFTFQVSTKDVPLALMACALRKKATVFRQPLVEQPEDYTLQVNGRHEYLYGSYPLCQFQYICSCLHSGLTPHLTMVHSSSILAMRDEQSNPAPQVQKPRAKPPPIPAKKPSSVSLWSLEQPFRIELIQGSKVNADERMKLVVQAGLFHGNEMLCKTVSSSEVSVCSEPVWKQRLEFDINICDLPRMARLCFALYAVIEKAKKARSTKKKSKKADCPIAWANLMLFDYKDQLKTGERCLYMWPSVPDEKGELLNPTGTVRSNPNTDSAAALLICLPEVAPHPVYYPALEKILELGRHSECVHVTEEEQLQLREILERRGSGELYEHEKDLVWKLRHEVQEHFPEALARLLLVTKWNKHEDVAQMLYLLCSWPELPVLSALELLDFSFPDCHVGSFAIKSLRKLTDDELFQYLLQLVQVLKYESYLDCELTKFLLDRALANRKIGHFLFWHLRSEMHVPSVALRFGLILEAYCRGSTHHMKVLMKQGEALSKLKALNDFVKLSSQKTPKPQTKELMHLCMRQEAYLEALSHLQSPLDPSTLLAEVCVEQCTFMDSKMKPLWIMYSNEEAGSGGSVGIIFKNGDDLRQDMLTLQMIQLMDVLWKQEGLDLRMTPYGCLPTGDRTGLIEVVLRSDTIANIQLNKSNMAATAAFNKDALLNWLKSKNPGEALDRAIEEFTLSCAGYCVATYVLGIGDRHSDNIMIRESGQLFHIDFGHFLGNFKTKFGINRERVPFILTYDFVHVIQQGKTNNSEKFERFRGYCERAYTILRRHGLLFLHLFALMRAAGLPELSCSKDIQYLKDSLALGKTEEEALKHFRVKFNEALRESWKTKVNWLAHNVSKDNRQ
# PIK3CD, sequence (P27986 whole entry partner): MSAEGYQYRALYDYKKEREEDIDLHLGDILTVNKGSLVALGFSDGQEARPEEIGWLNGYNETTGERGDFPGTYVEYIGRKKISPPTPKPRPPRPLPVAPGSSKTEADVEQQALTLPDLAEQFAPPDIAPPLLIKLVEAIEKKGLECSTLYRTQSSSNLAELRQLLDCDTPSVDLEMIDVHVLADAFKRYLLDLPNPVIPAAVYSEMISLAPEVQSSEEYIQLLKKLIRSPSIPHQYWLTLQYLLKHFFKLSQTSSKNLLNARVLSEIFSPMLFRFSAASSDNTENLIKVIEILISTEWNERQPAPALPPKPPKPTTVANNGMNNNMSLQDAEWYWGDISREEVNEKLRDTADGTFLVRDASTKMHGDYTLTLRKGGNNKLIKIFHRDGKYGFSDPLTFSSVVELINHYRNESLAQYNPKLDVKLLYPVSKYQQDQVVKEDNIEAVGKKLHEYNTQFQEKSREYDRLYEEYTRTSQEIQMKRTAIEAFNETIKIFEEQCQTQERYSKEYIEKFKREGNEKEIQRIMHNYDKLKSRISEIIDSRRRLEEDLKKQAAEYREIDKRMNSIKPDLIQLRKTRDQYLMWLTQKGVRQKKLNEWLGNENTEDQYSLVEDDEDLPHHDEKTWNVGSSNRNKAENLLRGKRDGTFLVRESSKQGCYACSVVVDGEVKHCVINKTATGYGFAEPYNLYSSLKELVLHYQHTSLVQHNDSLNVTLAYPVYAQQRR
# From the text: as §1
# PIK3CG = PIK3CG (Homo sapiens, UniProt P48736); test: in vitro kinase assay, PIK3CG; assay type: biochemical
# PIK3CG, sequence (P48736 whole entry): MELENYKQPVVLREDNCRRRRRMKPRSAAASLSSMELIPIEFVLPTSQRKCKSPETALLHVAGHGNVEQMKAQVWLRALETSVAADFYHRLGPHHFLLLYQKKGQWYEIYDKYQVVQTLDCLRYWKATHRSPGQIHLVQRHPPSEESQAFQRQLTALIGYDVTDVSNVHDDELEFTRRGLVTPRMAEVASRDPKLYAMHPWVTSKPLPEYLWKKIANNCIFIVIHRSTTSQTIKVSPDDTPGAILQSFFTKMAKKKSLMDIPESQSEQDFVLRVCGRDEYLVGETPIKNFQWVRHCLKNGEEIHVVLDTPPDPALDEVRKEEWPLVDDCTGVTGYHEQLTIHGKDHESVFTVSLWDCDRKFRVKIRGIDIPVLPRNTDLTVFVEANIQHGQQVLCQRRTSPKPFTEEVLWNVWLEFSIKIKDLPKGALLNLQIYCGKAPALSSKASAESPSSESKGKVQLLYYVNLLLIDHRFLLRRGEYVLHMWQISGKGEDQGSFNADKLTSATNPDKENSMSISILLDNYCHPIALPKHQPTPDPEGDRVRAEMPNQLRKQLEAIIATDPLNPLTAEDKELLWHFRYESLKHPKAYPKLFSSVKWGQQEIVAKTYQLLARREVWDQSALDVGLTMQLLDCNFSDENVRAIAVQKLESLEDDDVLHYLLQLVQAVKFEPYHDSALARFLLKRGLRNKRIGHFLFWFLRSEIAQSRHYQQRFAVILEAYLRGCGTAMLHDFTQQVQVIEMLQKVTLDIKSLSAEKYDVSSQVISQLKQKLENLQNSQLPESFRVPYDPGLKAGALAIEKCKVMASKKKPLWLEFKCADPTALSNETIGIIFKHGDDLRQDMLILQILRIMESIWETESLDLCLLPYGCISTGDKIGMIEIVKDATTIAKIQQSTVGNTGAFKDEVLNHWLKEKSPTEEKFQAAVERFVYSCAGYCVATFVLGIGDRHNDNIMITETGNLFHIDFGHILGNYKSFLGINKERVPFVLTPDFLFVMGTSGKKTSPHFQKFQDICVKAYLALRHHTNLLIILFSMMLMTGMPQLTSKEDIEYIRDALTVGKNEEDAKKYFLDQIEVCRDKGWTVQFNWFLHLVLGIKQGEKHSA
# From the text: as §1
# p110α = p110α (Homo sapiens, UniProt P42336); test: cell based assays, p110α; settings: for pIC50: in cell based assays
# p110α, sequence (P42336 whole entry, canonical isoform): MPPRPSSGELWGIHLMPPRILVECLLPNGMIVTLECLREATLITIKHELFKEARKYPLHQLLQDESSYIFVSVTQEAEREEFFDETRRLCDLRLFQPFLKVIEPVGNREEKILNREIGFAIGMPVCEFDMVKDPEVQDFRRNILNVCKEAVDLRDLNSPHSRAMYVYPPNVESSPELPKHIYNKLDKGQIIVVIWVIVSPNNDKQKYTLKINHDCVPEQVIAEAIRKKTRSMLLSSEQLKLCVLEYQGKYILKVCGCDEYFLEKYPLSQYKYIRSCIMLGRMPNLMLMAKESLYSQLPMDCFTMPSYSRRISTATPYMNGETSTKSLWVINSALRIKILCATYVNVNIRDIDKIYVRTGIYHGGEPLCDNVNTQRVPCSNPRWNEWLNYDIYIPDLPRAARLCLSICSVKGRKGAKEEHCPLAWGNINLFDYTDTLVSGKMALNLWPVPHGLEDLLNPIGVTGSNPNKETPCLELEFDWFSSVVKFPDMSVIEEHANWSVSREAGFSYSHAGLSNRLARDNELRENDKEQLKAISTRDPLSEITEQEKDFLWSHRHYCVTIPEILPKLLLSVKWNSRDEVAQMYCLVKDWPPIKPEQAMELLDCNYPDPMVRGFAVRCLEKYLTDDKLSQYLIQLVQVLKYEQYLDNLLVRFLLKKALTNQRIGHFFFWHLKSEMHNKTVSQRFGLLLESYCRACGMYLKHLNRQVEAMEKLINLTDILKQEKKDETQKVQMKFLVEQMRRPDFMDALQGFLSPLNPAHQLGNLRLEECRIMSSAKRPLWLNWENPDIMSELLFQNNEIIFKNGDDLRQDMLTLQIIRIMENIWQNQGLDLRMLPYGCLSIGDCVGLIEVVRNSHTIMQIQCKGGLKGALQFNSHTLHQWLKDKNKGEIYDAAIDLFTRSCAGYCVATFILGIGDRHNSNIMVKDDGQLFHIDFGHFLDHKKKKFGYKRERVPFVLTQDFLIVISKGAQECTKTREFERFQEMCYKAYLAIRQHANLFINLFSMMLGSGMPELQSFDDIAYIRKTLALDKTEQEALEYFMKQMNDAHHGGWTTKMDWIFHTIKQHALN
# p110α, sequence (P27986 whole entry partner, canonical isoform): as the sequence (P27986 whole entry partner) above
# From the text: (§2) PX-866 is an pan-isoform inhibitor of Class I P1-3K that covalently binds to ATP binding site of the p110 catalytic subunit. Described herein are studies that illustrate rapid metabolism of PX-866 to a 17-hydroxy PX-866 derivative.
# p110β = p110β (Homo sapiens, UniProt P42338); test: cell based assays, p110β; settings: in cell based assays
# From the text: as §2
# [3] = Phase I trial of oral PX-866: safety, DLT and MTD; assay type: in vivo, human
# Description: This was an Open-label dose escalation study with expansion cohort at Maximal Tolerated Dose (MTD), 3+3 design and to test efficacy of 2 dosing schedules (intermittent and continuous). PX-866 was administered as an oral dose.
# The primary and secondary objectives were tested using two different dosing regimens: 10 days of drug administration and daily administration for 28 days.
# Intermittent schedule: 10 dose levels tested (0.5-16 mg). The starting dose level was 0.5 mg. Doses increased as follows: 100% escalation up to 2 mg, 50% escalation up to 4.5 mg, and approximately 30% escalation until the MTD is identified. The highest dose level at which no more than ⅙ patients experiences DLT was declared the MTD. The resulting dose levels were: 0.5, 1, 2, 3, 4.5, 6, 8, 10, 12 and 16 mg.
# FIG. 1 illustrates the dosing schedule for intermittent dosing where PX-866 was given to patients on days 1-5 and 8-12 of a 28-day cycle.
# Continuous dosing schedule: The starting dose was two dose levels below the MTD of intermittent dosing (8 mg) and subsequent dose levels was one or two dose levels (10 mg or 8 mg) below the MTD of intermittent dosing dependent on recommendation of the dose cohort review committee. FIG. 1 illustrates the dosing schedule for continuous dosing.
# advanced solid tumors = test: Phase I trial of oral PX-866: response per RECIST; assay type: in vivo, human
# Description: Patient response was evaluated according to Response Evaluation Criteria in Solid Tumors (RECIST). Briefly, all measurable lesions up to a maximum of five lesions, representative of all involved organs were identified as target lesions and recorded and measured at baseline. Target lesions were selected on the basis of their size (lesions with the longest diameter) and their suitability for accurate repeated measurements (either by imaging techniques or clinically). A sum of the longest diameter (LD) for all target lesions was calculated and reported as the baseline sum LD. The baseline sum LD was used as reference by which to characterize the objective tumor. All other lesions (or sites of disease) were identified as non-target lesions and were also be recorded at baseline. Measurements of these lesions were not required, but the presence or absence of each was noted throughout follow-up.
# A Complete Response (CR) indicated a disappearance of all target lesions.
# [4] = system: PI-3K pathway (p-mTOR and p-S6); test: Phase I trial: pharmacodynamics in PBMCs stimulated ex vivo, FACS based assay; design: species or system human; settings: PBMCs of treated patients
# Description: The pharmacodynamic effects of PX-866 in patients treated in the phase I single agent study were assessed using isolated peripheral blood mononuclear cells (PBMCs) stimulated ex vivo via FACS based assay. […] The study provided Evidence for pathway inhibition lasting up to 3 days post-treatment.
# p-AKT/T-AKT = test: Phase I trial: p-AKT/T-AKT pharmacodynamics; assay type: in vivo, human; settings: 3 of 4 patients at 8 mg, 4 hours after a single oral dose
# [5] = system: A549 lung tumor xenografts; settings: 2 mg/kg PX-866 daily treatment groups
# Description: H460 and A549 lung tumor xenografts were implanted subcutaneously in nude mice according to previously described procedures. PX-866 was tested on both a daily (2 mg/kg) and every-other-day dosing (3 mg/kg) schedule alone, and in combination with a 10 mg/kg dose of docetaxel. The dosing schedule of PX-866 relative to docetaxel was varied to test the effect of docetaxel treatment prior to or subsequent to PX-866 treatment. A table of the following dosing regimens is as follows with animals in Group 1 receiving a daily vehicle: […]
# [6] = Phase I trial: clinical pharmacokinetics
# CUHN015 tumors = test: direct patient tumor model of SCCHN, CUHN015; assay type: in vivo, nude mice; settings: PX-866 2 mg/kg 5 out of 7 days; docetaxel 20 mg/kg IP weekly
# Description: Briefly, these models employed direct implantation of patients' tumors into nude mice according to Keysar et al., J Clin Oncol 28:15s, 2010 (suppl. abstruct 5558).
# Animals were treated with PX-866 alone, and in combination with 20 mg/kg docetaxel dosed intraperitoneally (IP) on a weekly schedule. Saline treated animals and 20 mg/kg docetaxel dosed animals served as controls for the study.
# clinical = settings: human, in vivo
# PIK3CA, sequence (P42336 whole entry): as the sequence (P42336 whole entry, canonical isoform) above
# PIK3CA, sequence (P27986 whole entry partner): as the sequence (P27986 whole entry partner) above
structure (smiles),measurement,setting,value
COC[C@H]1OC(=O)c2coc3c2[C@@]1(C)C1=C(C3=O)[C@@H]2CCC(=O)[C@@]2(C)C[C@H]1OC(C)=O [Wortmannin],stability,[1],subject to decomposition by hydrolytic opening of the furan ring
same,toxicity,[2],liver and hematologic toxicity
"C=CCN(/C=C1/C(=O)O[C@H](COC)[C@@]2(C)C1=C(O)C(=O)C1=C2[C@H](OC(C)=O)C[C@]2(C)C(=O)CC[C@@H]12)CC=C [PX-866, Acetic acid 4-diallylaminomethylene-6-hydroxy-1-α-methoxymethyl-10β,13β-dimethyl-3,7,17-trioxo-1,3,4,7,10,11β,12,13,14α,15,16,17-dodecahydro-2-oxa-cyclopenta[α]phenanthren-11-yl ester]",pIC50,PIK3CA,7.41
same,pIC50,PIK3CB,7.06
same,pIC50,PIK3CD,6.91
same,pIC50,PIK3CG,6.70
same,pIC50,p110α,7.41
same,pIC50,p110β,7.06
same,ALT/AST elevation,[3]; continuous dosing,ALT/AST elevation was observed
same,Most common adverse events (AEs),[3]; continuous dosing,"diarrhea, nausea, vomiting, headache and fatigue"
same,"DLT, patients","[3]; continuous dosing, 10 mg per day",2/3
same,Most common adverse events (AEs),[3]; intermittent dosing,"diarrhea, nausea, vomiting, and constipation"
same,toxicity in patients receiving >2 cycles,[3]; intermittent dosing schedule,No significant increase in toxicity
same,"Dose limiting toxicity (DLT), patients","[3]; intermittent dosing, 16 mg per day",2/5
same,Maximal Tolerated Dose (MTD) for continuous dosing,"[3]; oral, daily for 28 days",8 mg per day
same,Maximal Tolerated Dose (MTD) for intermittent dosing,"[3]; oral, days 1-5 and 8-12 of a 28-day cycle",12 mg per day
same,"Disease stabilization, patients",advanced solid tumors; continuous dosing,71%
same,"Disease stabilization, patients",advanced solid tumors; intermittent dosing,16%
same,duration of pathway inhibition post-treatment,[4],up to 3 days
same,decrease in p-AKT/T-AKT,p-AKT/T-AKT,≥ 60%
same,mortality,[5],Increased mortality
same,conversion of parent to 17-OH metabolite,"[6]; oral, patients",rapid conversion
same,plasma level of parent,"[6]; oral, patients, with rare exceptions",below the limits of detection
"CC(=O)O[C@@]12CO[C@@H]1C[C@H](O)[C@@]1(C)C(=O)[C@H](O)C3=C(C)[C@@H](OC(=O)[C@H](O)[C@@H](NC(=O)OC(C)(C)C)c4ccccc4)C[C@@](O)([C@@H](OC(=O)c4ccccc4)[C@H]21)C3(C)C [docetaxel, (2R,3S)—N-carboxy-3-phenylisoserine,N-tert-butyl ester, 13-ester with 5β-20-epoxy-1,2α,4,7β,10β,13α-hexahydroxytax-11-en-9-one 4-acetate 2-benzoate, trihydrate]",tumor growth,CUHN015 tumors,no effect on tumor growth
C=CCN(C=C1C(=O)OC(COC)C2(C)C1=C(O)C(=O)C1=C2C(OC(C)=O)CC2(C)C(O)CCC12)CC=C (centres unmarked) [17-OH PX-866],pIC50,PIK3CA,7.85
same,pIC50,PIK3CB,7.24
same,pIC50,PIK3CD,6.88
same,pIC50,PIK3CG,6.83
same,increase in potency,"p110α; cell proliferation assays versus p110α and p110β isoforms, relative to PX-866",2-5 fold
same,pIC50,p110α,7.85
same,pIC50,p110β,7.24
same,AUC(0-t),clinical; 8 mg,4.22 ng·h/mL
same,Cmax,clinical; 8 mg,1.14 ng/mL
same,half-life,clinical; 8 mg,3.62 h
same,Tmax,clinical; po,0.67 to 1.07 h
same,drug accumulation,"[6]; 12 mg cohort, intermittent dosing",no evidence of drug accumulation
same,AUC in humans compared with mice,[6]; due to increased mean residence time in humans,exceeded AUC in mice
same,Cmax in humans compared with mice,[6]; mice treated at an efficacious dose of PX-866 (2 mg/kg),equal to or exceed peak levels observed in mice
